Literature values, collected in paper PMC3437650 (Bioorganic & medicinal chemistry letters, 2008).

System: BBB choline transporter
Settings: ref 11b

Substance: N,N’-(1,12-dodecandiyl)-bis-pyridinium dibromide [bPiDDB]
- share of permeation into brain that uses the BBB choline transporter: ~ 90%
